{"source": "patent US20060148712A1", "about": "“Monocyte chemoattractant activity of galectin-3” (priority 2000, published 2006)", "key": {"[1]": {"test_system": "human peripheral blood monocytes", "experiment": "Monocyte migration assay in vitro (96-well micro Boyden chamber)", "assay_type": "cell-based", "excerpt": "Human monocytes were purified from venous blood of normal volunteers essentially as described previously (Nakagawara, et al., J. Clin. Invest. 68:1243-53 (1981)). In brief, after erythrocytes were sedimented by addition of 6% dextran saline solution (I part to 5 parts heparinized blood), the leukocytes were collected, washed twice, and resuspended in Ca^2+ and Mg^2+-free HBSS containing 5% autologous serum. Mononuclear cells were acquired by centrifugation of the leukocyte suspension on Ficoll Paque at 1,500 rpm for 15 min. The cells were resuspended in RPMI 1640 containing 10% autologous serum and allowed to adhere to sterile tissue culture plates for 30 min in a humidified incubator at 5% CO2 and 37° C. After incubation, non-adherent cells were removed by washing the plates three times with PBS at 37° C. […] To detach and harvest the adhered monocytes, 1 mM EDTA-PBS containing 5% serum was added and the plates were incubated on ice for 30 min. The monocytes were washed twice with HBSS and resuspended in RPMI 1640 with 0.1% autologous serum for the migration assay. The viability of monocytes was determined by trypan blue exclusion and was more than 98%. In some experiments, monocytes were purified according to another method using a Percoll discontinuous gradient described previously (Chuluyan & Issekutz, J. Clin. Invest. 92:2768-77 (1993)).\n(§1) Monocyte migration was examined by using 96-well micro Boyden chambers with 5 μm-pore size filters (Neuro Probe, Inc., Gaithersburg, Md.) as described previously (Falk, et al., J. Immunol. Meth. 33:239-47 (1980)), Chertov, et al., J. Biol. Chem. 271:2935-40 (1996)). Briefly, after the indicated concentrations of galectin-3 in RPMI 1640 were applied to the lower chambers, purified monocyte suspensions (2.5-5.0×10^4/well) were applied to the upper chambers. After incubation of the chambers for 1 h in a humidified incubator at 5% CO2 and 37° C., the filters were washed once with PBS and processed with Wright stain. The number of monocytes on the bottom side of the filters was counted in 5 to 10 high-power fields. Monocyte migration was calculated from the average numbers of the counted cells and expressed as % of input cells in a well.\nIn assays using inhibitory reagents, the purified monocytes were pretreated with or without the indicated concentrations of B2C10 (Liu, et al., Biochemistry 35:[…] (1996)) or anti-DNP IgG1 (Liu, et al., J. Immunol. 124:2728-31 (1980)) as an isotype-matched control mAb, galectin-3C, or PTX at 37° C. for 30 min. Then the cells were applied to the upper chambers in the presence of these inhibitors at the same concentrations used in the pretreatment. In the assays using lactose and sucrose, the sugars were added to the lower chambers at the initiation of the migration assay."}, "human monocytes": {"test_system": "human monocytes", "experiment": "Measurement of Ca2+ influx in monocytes (Indo-1 AM)", "assay_type": "cell-based", "protocol": "Intracellular concentrations of Ca^2+ were measured by using Indo-1 AM according to a previously described method (Lopez, et al., Cytometry 10:165-73 (1989)). Purified monocytes were resuspended in HBSS containing 1 mM Ca^2+, 1 mM Mg^2+, and 5% autologous serum, and incubated with […] Indo-1 AM for 45 min at 37° C. The cells were washed once, resuspended in the same buffer, and stimuli and inhibitors were added at the time points specified in the Figure Legends. Intracellular Ca^2+ concentration was measured by monitoring light emission at 405 and 485 nm to an excitation wavelength of 355 nm, using an AMINCO-Bowman series 2 luminescence spectrometer (Rochester, N.Y.)."}, "[2]": {"test_system": "cultured human peripheral blood macrophages", "experiment": "Migration of cultured human peripheral blood macrophages in vitro", "assay_type": "cell-based", "settings": "1 μM galectin-3; p<0.05, n=3", "excerpt": "(§2) Human macrophages were obtained by culturing peripheral blood monocytes in vitro for 7 days as previously described (Fantuzzi, et al., Blood 94:875-83 (1999)). Human alveolar macrophages were obtained from bronchoalveolar lavage (BAL) fluid according to a previously described protocol (Sugimoto et al, Am. Rev. Respir. Dis. 139:1329-35 (1989)). The purity of the macrophages was over 90% and the viability was over 99%.\nas §1"}, "[3]": {"test_system": "human alveolar macrophages", "experiment": "Migration of human alveolar macrophages in vitro", "assay_type": "cell-based", "settings": "two separate experiments; bell-shaped dose-response curves", "excerpt": "as §2, §1"}, "eosinophils": {"test_system": "eosinophils", "experiment": "Eosinophil attraction in vitro (not shown)", "assay_type": "cell-based"}, "lymphocytes": {"test_system": "lymphocytes", "experiment": "Lymphocyte migration in vitro", "assay_type": "cell-based"}, "neutrophils": {"test_system": "neutrophils", "experiment": "Neutrophil migration", "assay_type": "cell-based"}, "CCR-2": {"target": "T1, CCR-2 (Homo sapiens, UniProt P41597)", "T1 construct": "Chemokine receptors expressed on monocytes include CCR-1, CCR-2, CCR-5, and CXCR-4; endogenous in cells", "T1 sequence (P41597 whole entry)": "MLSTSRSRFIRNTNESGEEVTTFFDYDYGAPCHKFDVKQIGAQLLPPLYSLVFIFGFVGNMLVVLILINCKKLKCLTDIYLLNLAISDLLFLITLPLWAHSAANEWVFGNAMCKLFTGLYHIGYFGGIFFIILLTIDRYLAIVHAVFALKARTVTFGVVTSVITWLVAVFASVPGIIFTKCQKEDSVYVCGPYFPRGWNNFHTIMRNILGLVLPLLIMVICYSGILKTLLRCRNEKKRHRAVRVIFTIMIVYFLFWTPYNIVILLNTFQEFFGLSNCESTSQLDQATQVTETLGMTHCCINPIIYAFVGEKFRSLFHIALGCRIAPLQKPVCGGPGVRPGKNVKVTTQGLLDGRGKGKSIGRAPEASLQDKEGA", "experiment": "Immunoprecipitation and immunoblotting with specific antibodies", "assay_type": "binding"}, "CXCR-4": {"target": "T2, CXCR-4 (Homo sapiens, UniProt P61073)", "T2 construct": "Chemokine receptors expressed on monocytes include CCR-1, CCR-2, CCR-5, and CXCR-4; endogenous in cells", "T2 sequence (P61073 whole entry)": "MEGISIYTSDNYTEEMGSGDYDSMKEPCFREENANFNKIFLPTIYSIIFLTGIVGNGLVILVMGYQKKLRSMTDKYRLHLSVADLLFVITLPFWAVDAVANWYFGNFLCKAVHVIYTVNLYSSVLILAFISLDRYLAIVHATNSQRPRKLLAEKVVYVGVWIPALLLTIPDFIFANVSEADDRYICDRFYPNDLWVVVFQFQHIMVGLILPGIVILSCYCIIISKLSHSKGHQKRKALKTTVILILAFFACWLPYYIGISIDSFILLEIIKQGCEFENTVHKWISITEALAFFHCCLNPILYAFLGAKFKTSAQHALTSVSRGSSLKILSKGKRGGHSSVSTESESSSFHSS", "experiment": "Immunoprecipitation and immunoblotting with specific antibodies", "assay_type": "binding"}}, "data": [{"substance": "galectin-3: Recombinant human galectin-3, a 26 kDa beta-galactoside-binding protein (lectin)", "values": [{"measurement": "Monocyte migration (% of input cells)", "setting": "[1]; 10 nM galectin-3, subsequent experiments n=21, control 4.26±1.3%, p<0.001", "value": "7.01±2.1", "unit": "%"}, {"measurement": "Monocyte migration (% of input cells)", "setting": "[1]; 100 nM galectin-3 in lower chamber, n=4 experiments, diluent control 3.54±2.2%", "value": "6.25±1.3", "unit": "%"}, {"measurement": "Monocyte migration (% of input cells)", "setting": "[1]; 300 nM galectin-3 in lower chamber, n=4 experiments, diluent control 3.54±2.2%", "value": "9.8±0.33", "unit": "%"}, {"measurement": "Monocyte migration with galectin-3 in both chambers", "setting": "[1]; 1 μM galectin-3 added to both chambers", "value": "no significant increase in monocyte migration over the background"}, {"measurement": "Monocyte migration (% of input cells)", "setting": "[1]; 1 μM galectin-3 in lower chamber, n=4 experiments, diluent control 3.54±2.2%", "value": "12.4±1.2", "unit": "%"}, {"measurement": "Effect on monocyte migration compared with MCP-1", "setting": "[1]; 1 μM galectin-3 vs MCP-1 at 100 ng/ml (11.6 nM)", "value": "comparable to that of human recombinant MCP-1"}, {"measurement": "Monocyte migration (% migrated cells of the total cells)", "setting": "[1]; checkerboard: galectin-3 above 0 nM, below 10 nM", "value": "8.66 ± 0.22", "unit": "%"}, {"measurement": "Monocyte migration (% migrated cells of the total cells)", "setting": "[1]; checkerboard: galectin-3 above 0 nM, below 100 nM", "value": "9.96 ± 0.72", "unit": "%"}, {"measurement": "Monocyte migration (% migrated cells of the total cells)", "setting": "[1]; checkerboard: galectin-3 above 0 nM, below 1000 nM", "value": "13.1 ± 1.33", "unit": "%"}, {"measurement": "Monocyte migration (% migrated cells of the total cells)", "setting": "[1]; checkerboard: galectin-3 above 10 nM, below 0 nM", "value": "7.55 ± 0.79", "unit": "%"}, {"measurement": "Monocyte migration (% migrated cells of the total cells)", "setting": "[1]; checkerboard: galectin-3 above 10 nM, below 10 nM", "value": "8.88 ± 1.09", "unit": "%"}, {"measurement": "Monocyte migration (% migrated cells of the total cells)", "setting": "[1]; checkerboard: galectin-3 above 10 nM, below 100 nM", "value": "9.23 ± 2.23", "unit": "%"}, {"measurement": "Monocyte migration (% migrated cells of the total cells)", "setting": "[1]; checkerboard: galectin-3 above 10 nM, below 1000 nM", "value": "11.5 ± 3.49", "unit": "%"}, {"measurement": "Monocyte migration (% migrated cells of the total cells)", "setting": "[1]; checkerboard: galectin-3 above 100 nM, below 0 nM", "value": "10.7 ± 0.86", "unit": "%"}, {"measurement": "Monocyte migration (% migrated cells of the total cells)", "setting": "[1]; checkerboard: galectin-3 above 100 nM, below 10 nM", "value": "11.4 ± 2.11", "unit": "%"}, {"measurement": "Monocyte migration (% migrated cells of the total cells)", "setting": "[1]; checkerboard: galectin-3 above 100 nM, below 100 nM", "value": "10.5 ± 2.10", "unit": "%"}, {"measurement": "Monocyte migration (% migrated cells of the total cells)", "setting": "[1]; checkerboard: galectin-3 above 100 nM, below 1000 nM", "value": "12.5 ± 2.87", "unit": "%"}, {"measurement": "Monocyte migration (% migrated cells of the total cells)", "setting": "[1]; checkerboard: galectin-3 above 1000 nM, below 0 nM", "value": "3.30 ± 2.82", "unit": "%"}, {"measurement": "Monocyte migration (% migrated cells of the total cells)", "setting": "[1]; checkerboard: galectin-3 above 1000 nM, below 10 nM", "value": "3.25 ± 3.11", "unit": "%"}, {"measurement": "Monocyte migration (% migrated cells of the total cells)", "setting": "[1]; checkerboard: galectin-3 above 1000 nM, below 100 nM", "value": "4.55 ± 3.69", "unit": "%"}, {"measurement": "Monocyte migration (% migrated cells of the total cells)", "setting": "[1]; checkerboard: galectin-3 above 1000 nM, below 1000 nM", "value": "3.50 ± 2.41", "unit": "%"}, {"measurement": "Nature of the effect on monocytes in vitro", "setting": "[1]; high concentrations (1 μM)", "value": "chemotactic"}, {"measurement": "Nature of the effect on monocytes in vitro", "setting": "[1]; low concentrations (10 and 100 nM)", "value": "chemokinetic"}, {"measurement": "Induction of Ca2+ influx in human monocytes", "setting": "human monocytes; 1 μM galectin-3", "value": "induced a Ca^2+ influx"}, {"measurement": "Extent of Ca2+ influx compared with MCP-1", "setting": "human monocytes; 1 μM galectin-3 vs 100 ng/ml MCP-1, three separate experiments", "value": "lower than that by the chemokine"}, {"measurement": "Cross-desensitization of Ca2+ influx with monocyte-reactive chemokines", "setting": "human monocytes; 1 μM galectin-3 vs MCP-1, MIP-1α, SDF-1α at 100 ng/ml, either order", "value": "no cross-desensitization"}, {"measurement": "Induction of Ca2+ influx in human monocytes", "setting": "human monocytes; galectin-3 concentrations lower than 1 μM", "value": "not"}, {"measurement": "Enhancement of macrophage migration over that induced by the control medium", "setting": "[2]", "value": 190, "unit": "%"}, {"measurement": "Migration of human alveolar macrophages", "setting": "[3]", "value": "migrated towards galectin-3"}, {"measurement": "Attraction of eosinophils in vitro", "setting": "eosinophils", "value": "does not attract eosinophils"}, {"measurement": "Migration of lymphocytes in vitro", "setting": "lymphocytes", "value": "does not induce migration of lymphocytes"}, {"measurement": "Concentration required for maximum migration of neutrophils compared with monocytes", "setting": "neutrophils", "value": "Lower concentrations"}, {"measurement": "Interaction with chemokine receptor", "setting": "CCR-2", "value": "Neither have interactions between galectin-3 and these four chemokine receptors been detected"}, {"measurement": "Interaction with chemokine receptor", "setting": "CXCR-4", "value": "Neither have interactions between galectin-3 and these four chemokine receptors been detected"}]}]}
